We go through 2 sequences from article PMC7065950 (Nature biotechnology, 2020).

What all share (assay type): in vivo, C57BL/6 mice
One test relates to B16-F10 tumor cells. The test can be described thus: B16-F10 therapeutic tumor model. The conditions noted are these: B16-F10 SC implanted.
Test [1] has as its system antigen-specific CD8 T cells. The test can be described thus: CD8 T cell response by intracellular cytokine staining of blood. The conditions noted are these: LP delivered as SNP-7/8a; × = immunogenic; listed as M07.
Test [2] concerns antigen-specific CD4 T cells. The experiment in a line: CD4 T cell response by intracellular cytokine staining of blood. Conditions: LP delivered as SNP-7/8a; × = immunogenic.

With “ELINFKRKRVAAFQKNLIEMSELEIKH [Compound B16-M39]”, the “Tumor control, neoantigen as LP + polyIC by SC route” value in the test with B16-F10 tumor cells (days 1, 8 and 15 with anti-PD-L1 IP) is given as “no efficacy observed”.
In the case of “TAKSVMCTYSPPLDKLFCQLAKTCPVQ [Compound B16-M07]”, in test [1], the “CD8 response, present study, SNP-7/8a” value is listed as “induced a CD8 T cell response”. For the same sequence, the “CD4 response, present study, SNP-7/8a” value in test [2] was “no significant CD4 T cell response”. In the test on B16-F10 tumor cells (with anti-PD-L1 IP), the “Tumor control, neoantigen as SNP-7/8a by IV route” value is reported as “improved control of tumor growth”.
